ChEMBL document CHEMBL1909046, “DrugMatrix in vitro pharmacology data”
pIC50: −log10 of the molar value.

Key:
[1] = target: Epidermal growth factor receptor (Homo sapiens, UniProt P00533); assay: DRUGMATRIX: Protein Tyrosine Kinase, EGF Receptor enzyme inhibition (substrate: Poly(Glu:Tyr)); type: cell-based, Insect cells; details: insect cells, Not Active = under 50% inhibition at 10 µM
[2] = target: T1, Cholecystokinin receptor type A (Homo sapiens, UniProt P32238); type: cell membranes, Membrane; details: 1321-n1; further: in other assays of this panel Not Active means under 50% inhibition at 10 µM
T1 sequence (P32238 whole entry): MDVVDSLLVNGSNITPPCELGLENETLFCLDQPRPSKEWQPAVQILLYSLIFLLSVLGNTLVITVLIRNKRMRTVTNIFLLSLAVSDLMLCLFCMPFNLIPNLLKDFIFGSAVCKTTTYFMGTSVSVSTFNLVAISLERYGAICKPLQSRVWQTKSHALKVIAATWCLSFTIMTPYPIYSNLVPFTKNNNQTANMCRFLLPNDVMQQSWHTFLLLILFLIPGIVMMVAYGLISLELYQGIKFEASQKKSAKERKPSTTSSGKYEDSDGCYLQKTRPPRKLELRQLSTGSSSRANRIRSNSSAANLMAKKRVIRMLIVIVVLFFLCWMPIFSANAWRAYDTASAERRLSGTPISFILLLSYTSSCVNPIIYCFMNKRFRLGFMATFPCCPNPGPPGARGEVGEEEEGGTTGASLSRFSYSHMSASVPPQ

[3] = DRUGMATRIX: ATPase, Na+/K+ enzyme inhibition (substrate: ATP); type: tissue-based, Sus scrofa, Heart; details: Not Active = under 50% inhibition at 10 µM
Cytochrome P450 2C9 = Cytochrome P450 2C9 (Homo sapiens, UniProt P11712); details: bti-tn-5b1-4; further: in other assays of this panel Not Active means under 50% inhibition at 10 µM
Chain of Cytochrome P450 2C9 (P11712 whole entry): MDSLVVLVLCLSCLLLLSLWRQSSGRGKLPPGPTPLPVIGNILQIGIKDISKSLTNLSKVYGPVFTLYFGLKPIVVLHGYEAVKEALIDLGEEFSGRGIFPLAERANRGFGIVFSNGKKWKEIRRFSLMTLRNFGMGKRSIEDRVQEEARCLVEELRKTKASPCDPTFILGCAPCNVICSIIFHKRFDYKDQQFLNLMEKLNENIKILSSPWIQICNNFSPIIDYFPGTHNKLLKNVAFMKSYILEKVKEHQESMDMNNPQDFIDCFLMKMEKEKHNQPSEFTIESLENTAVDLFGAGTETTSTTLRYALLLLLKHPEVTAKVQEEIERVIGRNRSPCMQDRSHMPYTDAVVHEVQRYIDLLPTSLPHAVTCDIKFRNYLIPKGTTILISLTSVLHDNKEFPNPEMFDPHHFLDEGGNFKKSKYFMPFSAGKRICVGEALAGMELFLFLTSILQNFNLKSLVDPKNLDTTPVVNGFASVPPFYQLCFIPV

Carbonic anhydrase 2 = Carbonic anhydrase 2 (Homo sapiens, UniProt P00918); assay: DRUGMATRIX: Carbonic Anhydrase II enzyme inhibition (substrate: 4-Nitrophenyl acetate (4-NPA)); type: tissue-based, Erythrocyte; details: erythrocyte; Not Active = under 50% inhibition at 10 µM
[4] = DRUGMATRIX: GABAA, Flunitrazepam, Central radioligand binding (ligand: [3H] Flunitrazepam); type: cell membranes, Rattus norvegicus, Wistar, Brain, Membrane; details: Not Active = under 50% inhibition at 10 µM
[5] = target: T2, Cysteinyl leukotriene receptor 1 (Homo sapiens, UniProt Q9Y271); type: cell membranes, CHO-K1, Membrane; details: cho-k1; further: in other assays of this panel Not Active means under 50% inhibition at 10 µM
T2 sequence (Q9Y271 whole entry): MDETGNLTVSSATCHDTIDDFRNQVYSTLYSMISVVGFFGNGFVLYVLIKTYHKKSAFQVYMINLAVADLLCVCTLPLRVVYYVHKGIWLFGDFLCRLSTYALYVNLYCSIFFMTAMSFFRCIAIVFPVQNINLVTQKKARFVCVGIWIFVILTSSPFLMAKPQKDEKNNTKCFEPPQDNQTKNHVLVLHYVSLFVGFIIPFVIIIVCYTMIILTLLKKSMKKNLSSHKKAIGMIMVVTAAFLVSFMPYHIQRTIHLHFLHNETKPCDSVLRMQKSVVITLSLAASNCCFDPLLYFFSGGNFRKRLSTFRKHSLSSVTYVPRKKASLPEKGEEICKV

Row | Compound | pIC50 ([1]; read-out: IC50) | IC50 [2] | Ki [2] | IC50 [3] | Ki [3] | IC50 (Cytochrome P450 2C9) | Ki (Cytochrome P450 2C9) | IC50 (Carbonic anhydrase 2) | Ki (Carbonic anhydrase 2) | IC50 [4] | Ki [4] | IC50 [5] | Ki [5] | IC50 [1]
1 | CADMIUM DICHLORIDE | 6.31 | Not Active | Not Active | Not Active | Not Active | Not Active | Not Active | Not Active | Not Active | Not Active | Not Active | Not Active | Not Active | 
2 | CCCN(CCC)C(=O)C(CCC(=O)O)NC(=O)c1ccccc1 (stereo not given) [PROGLUMIDE] |  | Not Active |  | Not Active | Not Active | Not Active | Not Active | Not Active |  | Not Active | Not Active | Not Active |  | Not Active
3 | O=C(N[C@H](CO)[C@H](O)c1ccc([N+](=O)[O-])cc1)C(Cl)Cl [CHLORAMPHENICOL] |  | Not Active |  | Not Active | Not Active |  |  | Not Active |  | Not Active | Not Active | Not Active |  | Not Active
4 | CCCCOc1ccc(OCCCN2CCOCC2)cc1 [PRAMOXINE] |  | Not Active |  | Not Active | Not Active | Not Active | Not Active | Not Active |  | Not Active | Not Active | Not Active |  | Not Active
5 | CC(C)(C(=O)c1cccnc1)c1cccnc1 [METYRAPONE] |  | Not Active |  | Not Active | Not Active | Not Active | Not Active | Not Active |  | Not Active | Not Active | Not Active |  | Not Active
6 | CC(=O)Nc1cccc(O)c1 [METACETAMOL] |  | Not Active |  | Not Active | Not Active | Not Active | Not Active | Not Active |  | Not Active | Not Active | Not Active |  | Not Active
7 | NC(=O)c1cnccn1 [PYRAZINAMIDE] |  | Not Active |  | Not Active | Not Active | Not Active | Not Active | Not Active |  | Not Active | Not Active | Not Active |  | Not Active
8 | CC[C@@H](CO)NCCN[C@@H](CC)CO [ETHAMBUTOL] |  | Not Active |  | Not Active | Not Active | Not Active | Not Active | Not Active |  | Not Active | Not Active | Not Active |  | Not Active
9 | CC(C)(Oc1ccc(C2CCCc3ccccc32)cc1)C(=O)O (stereo not given) [NAFENOPIN] |  | Not Active |  | Not Active | Not Active | Not Active | Not Active | Not Active |  | Not Active | Not Active | Not Active |  | Not Active
10 | C[C@@H]1C[C@@H]([C@H](O)CC2CC(=O)NC(=O)C2)C(=O)[C@@H](C)C1 [CYCLOHEXIMIDE] |  | Not Active |  | Not Active | Not Active |  |  | Not Active |  | Not Active | Not Active | Not Active |  | Not Active
11 | CCn1cc(C(=O)O)c(=O)c2cc(F)c(N3CCN(C)CC3)cc21 [PEFLOXACIN] |  | Not Active |  | Not Active | Not Active |  |  | Not Active |  | Not Active | Not Active | Not Active |  | Not Active
12 | CCN(CC)CCOC(=O)c1ccc(N)cc1 [PROCAINE] |  | Not Active |  | Not Active | Not Active | Not Active | Not Active | Not Active |  | Not Active | Not Active | Not Active |  | Not Active
13 | CCCC(CCC)C(=O)O [VALPROIC ACID] |  | Not Active |  | Not Active | Not Active | Not Active | Not Active | Not Active |  | Not Active | Not Active | Not Active |  | Not Active
14 | COc1ccc2cc([C@H](C)C(=O)O)ccc2c1 [NAPROXEN] |  | Not Active |  | Not Active | Not Active |  |  | Not Active |  | Not Active | Not Active | Not Active |  | Not Active
